Structures are written as SMILES.

Data set [1] deals with lymphocyte. Particulars: cited from earlier work.
In data set [2] the test system is dendritic cells derived from bone marrow cells. Particulars: in vitro; cited from earlier work.
The subject of data set [3] is protein of mammary cancer 4T1 cells. The experiment in a line: Whole-cell antibody detection (serum IgG ELISA). In kind it is in vivo, mice. The conditions noted are these: blood collected sixth day after each of 4 immunotherapies, FIG. 12. The procedure: The protein of mammary cancer 4T1 cells is extracted and the concentration of which is also measured in accordance with the operation manual of the BCA protein quantitative kits. The extracted protein is used as the envelope antigen. The venous blood of mice is collected sixth days after each immunotherapy, and its supernatant is collected for 4 times. The serum antibody is measured in accordance with the operation manual of the ELISA kit.

The test system of data set [4] is spleen lymphocytes. The experiment in a line: ELISA detection of cytokines IFN-γ and IL-12 generated by spleen lymphocytes after stimulation of T7-EA. In kind it is cell-based, mice. The conditions noted are these: 24 hours. On the procedure: (§1) The mice are broken the neck to death and soaked in 75% ethanol, and then placed on the super-clean bench for taking the spleen out with a sterile operation. The spleen is grinded in the 35 mm culture dish containing 4-5 ml Mouse1×lymphocyte separating medium. Then separating medium suspended with spleen cells is transferred to the 15 ml centrifuge tube and enclosed with 500 μl RPMI-1640, After that the centrifuge tube is centrifuged at room temperature for 30 minutes at 800 G. Then the middle buffy coat is placed into a centrifuge tube containing 10 ml culture medium for being overthrown and washed. After that, the centrifuge tube is further centrifuged at 250 G for 10 minutes at room temperature. The supernatant is discarded and the cell pellet is dissipated by the culture medium and counted. The spleen leukomonocytes are deposited on the 24-well plate with a final cell density of 1×10^6/ml. T7-EA with corresponding concentrations (0, 0.01, 0.1, 0.5, 1, 2, 4, 8, 16, 20, 24 μmol/L) is added and incubated for 24 hours in the cell culture box. The supernatant is collected on the second day and tested according to the operation manual of the ELISA kit. […] When the T7-EA has a concentration ≤4 μmol/L, better effects can be obtained. Accordingly, 4 μmol/L is the effective concentration of the T7-EA.

Data set [5] relates to B16f10 melanoma cells. The experiment in a line: CTL experiment (LDH method), spleen lymphocytes of treated mice against B16f10. Format: in vivo. The conditions noted are these: effector:target 50:1, 4 hours, after two weeks of administration; vs control, T7 and EA groups (P<0.05), FIG. 6. The procedure: The activity of cytotoxic T lymphocyte (CTL) is determined by the method of Lactic dehydrogenase (LDH) with CytoTox96Promega kits. The mice in the experimental group are broken the neck to death. The spleen lymphocytes are taken as the effector cells while the B16f10 melanoma cells are used as the target cells. The effector cells and the target cells are mixed up with a ratio of 50:1 and cultured for 4 hours. The specific operation steps can be implemented according to the operation manual, while the kill rate can calculated as follows: the killing rate (%)=(OD value of the experimental group−pontaneous OD value of the effector cells−pontaneous OD value of the target cells)/(Maximum OD value of the target cells−pontaneous OD value of the target cells)×100%. The mice in the experimental group are broken the neck to death after two weeks of administration. The spleen lymphocytes are taken as the effector cells while the B16f10 melanoma cells are used as the target cells. The effector cells and the target cells are spread onto 96-well U-shape plate according to a ratio of 50:1 and cultured together for 4 hours.

In data set [6] the test system is spleen lymphocytes. The experiment in a line: ELISA detection of IFN-γ and IL-12 after stimulation of spleen lymphocytes in vitro by T7-EA. In kind it is cell-based, mice. Particulars: 24 hours, FIGS. 3A-3B. On the procedure:
The mice are broken the neck to death and soaked in 75% ethanol for 5 minutes, and then placed on the super-clean bench for taking the spleen out with a sterile operation. The spleen is grinded in the 35 mm culture dish containing 4-5 ml murine lymphocyte separating medium. Then obtained cell suspension is transferred to the 15 ml centrifuge tube in which 500 μl RPMI-1640 is gently added along the tube wall for enclosure. After that the centrifuge tube is centrifuged for 30 minutes at 800 G. Then the centrifuged layer containing the lymphocytes is further centrifuged at 250 G for 10 minutes in a centrifuge tube containing 10 ml culture medium. The supernatant is discarded and the cell pellet is dissipated by the culture medium and counted. The spleen leukomonocytes are deposited on the 24-well plate with a cell density of 1×10^6/ml. T7-EA with corresponding concentrations (0, 0.001, 0.01, 0.1, 1, 2, 4, 8, 16, 20, 24 μmol/L) is added into each well and incubated for 24 hours in the cell culture box of 5% CO2 and saturated humidity at 37° C. The supernatant is collected on the second day and tested according to the operation manual of the ELISA kit. The supernatants are collected after stimulating the spleen lymphocytes with T7-EA of different concentrations for 24 hours, and the ELISA test results are shown in FIGS. 3A-3B.

Data set [7] relates to spleen lymphocytes. The experiment in a line: ELISA detection of cytokines IFN-γ and IL-12 generated by spleen lymphocytes after stimulation of T7-EA-ROR1. In kind it is cell-based, murine. The conditions noted are these: final T7-EA concentration 4 μmol/L, T7-EA:ROR1 molar ratio 1:1, FIGS. 10A-10B. The procedure:
as §1, with “T7-EA. […]” for “T7-EA.”

Data set [8] deals with spleen lymphocytes. The experiment in a line: Lymphocyte proliferation experiment (CCK8). In kind it is cell-based, mice. The conditions noted are these: 24 hours; for proliferation of the lymphocytes: CCK8, FIG. 4. The procedure: The activation and proliferation abilities of T7-EA on the lymphocytes are detected. The mice are broken the neck to death and soaked in 75% ethanol, and then placed on the super-clean bench for taking the spleen out with a sterile operation. The spleen is grinded in the 35 mm culture dish containing 4-5 ml murine lymphocyte separating medium. Then obtained cell suspension is transferred to the 15 ml centrifuge tube in which 500 μl RPMI-1640 is gently added along the tube wall for enclosure. After that the centrifuge tube is centrifuged for 30 minutes at 800 G. Then the centrifuged layer containing the lymphocytes is further centrifuged at 250 G for 10 minutes in a centrifuge tube containing 10 ml culture medium. The supernatant is discarded and the cell pellet is dissipated by the culture medium and counted. The spleen leukomonocytes are deposited on the 96-well plate with a cell density of 2×10^5/each well. T7-EA with corresponding concentrations (0, 0.001, 0.01, 0.1, 1, 2, 4, 8, 16, 20, 24 μmol/L) is added onto the 96-well plate and incubated for 24 hours in the cell culture box of 5% CO2 and saturated humidity at 37° C. The effect of the T7-EA on the proliferation of the lymphocytes is detected by CCK8 after the 24 hours incubation according to the operation manual of the CCK8 kits, and the results are shown in FIG. 4. […] When the T7-EA has a concentration of 4 μmol/L, the relative proliferation rate is about 50%.

For data set [9], the system named is murine melanoma cell line B16f10. The experiment in a line: Anti tumor experiment of T7-EA in vivo (melanoma-bearing mice). Further details: species or system BALB/c mice. Particulars: T7-EA 10 mg/Kg once every three days for 2 weeks; vs control group, T7 group and EA group (P<0.01), FIG. 5. From the text:
The used materials comprise animal and cell strain BALB/c mice, female, 5-6 weeks old, provided by the Guangdong Medical Laboratory Animal Center; and murine melanoma cell line B16f10 purchased from Shanghai ATCC Cell Bank.
24 4-5 weeks old female BALB/c mice are loaded with 5×10^5 tumor cells/each one after 1 weeks of quarantine at SPF level in an animal room. The mice bearing tumors are randomly divided into 75% ethanol control group, T7 group, EA group and T7-EA group, when the diameter of the tumor reaches 5 mm. The corresponding drugs are given to each group with a dosage of T7-EA 10 mg/Kg, T7 5 mg/kg, EA 12.5 mg/kg once every three days for 2 weeks. During the treatment, the tumor growth is observed by measuring the tumor size every three days. The tumor surface area is calculated according to the following formula: S=tab (wherein a represents the long diameter, while b represents the short diameter). The 24 mice are loaded with 5×10^5 tumor cells/each one after 7 days of quarantine at SPF level in an animal room. The mice bearing tumors are randomly divided into 75% ethanol control group, T7 group, EA group and T7-EA group, when the diameter of the tumor reaches 5 mm. The corresponding drugs are given to each group once every three days for 2 weeks, and the tumor size is measured every three days.

Where [10] appears, read: higher concentration (>4 μmol/L).
[11] abbreviates: lower concentration (≤4 μmol/L).

For `COCCOc1nc(N)c2nc(O)n(Cc3ccc(CN)cc3)c2n1` [T7], in data set [1], the “production of inflammatory mediators IFN-γ and IL-12” value is “inflammatory mediators, such as IFN-γ and IL-12 can also be produced rapidly”. Moreover, the “production of inflammatory mediators TNF-a and IL-12” value in [2] was “inflammatory mediators, such as TNF-a and IL-12 can be produced rapidly”.
In the case of `C=C(CC)C(=O)c1ccc(OCC(=O)NCc2ccc(Cn3c(O)nc4c(N)nc(OCCOC)nc43)cc2)c(Cl)c1Cl` [T7-EA], the “level of IgG antibody in the mice sera” value in data set [3] was “increases gradually with the increase of immunization times”. The “generation of cytokines IFN-γ and IL-12 by lymphocytes” value in data set [4] (0-24 μmol/L, FIGS. 8A-8B) was “can activate the lymphocytes and induce the lymphocytes to generate cytokines IFN-γ and IL-12”. Also, in data set [4] (IFN-γ and IL-12 induction), the “effective concentration of the T7-EA” value is 4 µmol/L. Also, the “immune killing effect (CTL killing rate)” value in data set [5] is “stronger immune killing effect on melanoma”. For the same compound, the “ability for activating lymphocytes (generation of IFN-γ and IL-12)” value in data set [6] (setting [10]) was “decreased ability for activating lymphocytes”; in data set [6] (setting [11]) it was “stronger ability for activating lymphocytes”. For the same compound, the “generation of cytokines IFN-γ and IL-12 by spleen lymphocytes” value in data set [7] was “can induce the spleen lymphocytes to generate cytokines IFN-γ and IL-12”. Further, the relative proliferation rate result in data set [8] (concentration of 4 μmol/L) was “about 50%”. Further, the “lethal effect on the lymphocytes” value in data set [8] (higher concentration (>4 μmol/L), CCK8) is “no lethal effect on the lymphocytes”. Also, the “proliferation of the lymphocytes” value in data set [8] (setting [10]) is on record as “no effect on the proliferation of the lymphocytes”; in data set [8] (setting [11]) it was “can promote the proliferation of the lymphocytes”. Besides, the “growth of the tumor (tumor surface area)” value in [9] was “significantly inhibited the growth of the tumor”.

The values are drawn from patent US10711005B2, “Compound I and compound II as well as preparation methods therefor and application thereof” (SHENZHEN UNIVERSITY, priority 2015, dated 2020).
